The results in this text go back to patent US9000044B2, “Substituted naphthylacetic acids” (Hoffmann-La Roche Inc., priority 2012, dated 2015).

Experiment [1] concerns the target T1, human CRTH2 (Homo sapiens (Human), UniProt Q9Y5Y4). Put plainly: Human CRTH2 Receptor Binding Assay (whole cell, [3H]ramatroban). As to conditions: CHO-K1 cells expressing human CRTH2 and G-alpha16; 20 nM [3H]ramatroban; 1 hour, room temperature. The source says:
Human CRTH2 Receptor Binding Assay
A whole cell receptor binding assay using [^3H]ramatroban as the competing radioactive ligand was employed to evaluate the compound binding activity to human CRTH2. The radioactive ligand [^3H]ramatroban was synthesized according to Sugimoto et. al. (Eur. J. Pharmacol. 524, 30-37, 2005) to a specific activity of 42 Ci/mmol.
A cell line stably expressing human CRTH2 was established by transfecting CHO-K1 cells with two mammalian expression vectors that harbored human CRTH2 and G-alpha16 cDNAs, respectively, using FuGene® 6 transfection reagent (from Roche). Stable clones expressing CRTH2 were selected by staining each clone with BM16 (BD Pharmingen™ from BD Biosciences, a division of Becton, Dickinson and Company), which is a rat monoclonal antibody to human CRTH2. The cells were maintained as monolayer cultures in Ham's F-12 medium containing 10% fetal bovine serum, 100 units/mL penicillin, 100 μg/mL streptomycin, 2 mM glutamine, 0.5 mg/mL G418 (geneticin) for CRTH2, and 0.2 mg/mL hygromycin-B (for G-alpha 16). For whole cell receptor binding assay, the monolayer cells were rinsed once with PBS (phosphate buffered saline), dissociated using ethylenediaminetetraacetate (Versene™ EDTA from Lonza Inc.), and suspended in PBS containing 10 mM MgCl2 and 0.06% BSA (bovine serum albumin) at 1.5×10^6 cells/mL.
The binding reactions (0.2 mL) were performed in 96-well plates at room temperature in PBS containing 1.5×10^5 cells, 10 mM MgCl2, 0.06% BSA, 20 nM [^3H]ramatroban, and test compound at various concentrations. After 1 hour of binding reactions, the cells were harvested on GF™/B filter microplates (microtiter plates with embedded glass fiber from PerkinElmer, Inc.) and washed 5 times with PBS using a Filtermate™ Harvester (a cell harvester that harvests and washes cells from microplates from PerkinElmer, Inc.). The radioactivities bound to the cells were determined using a microplate scintillation counter (TopCount® NXT, from PerkinElmer, Inc.) after adding 50 μL of Microscint™ 20 scintillation fluid (from PerkinElmer, Inc.) to each well of the filter plates. The radioactivity from non-specific binding was determined by replacing compound with 10 μM of 15(R)-15-methyl PGD2 (from Cayman Chemical Company) in the reaction mixtures. The radioactivity bound to the cells in the absence of compound (total binding) was determined by replacing compound with 0.25% of DMSO (dimethyl sulfoxide) in the reaction mixture. Specific binding data were obtained by subtracting the radioactivity of non-specific binding from each binding data.
The IC50 value is defined as the concentration of the tested compound that is required for 50% inhibition of total specific binding. In order to calculate the IC50 value, the percent inhibition data were determined for 7 concentrations for each compound. The percent inhibition for a compound at each concentration was calculated according to the following formula, [1-(specific binding in the presence of compound)/(total specific binding)]×100. The IC50 value was then obtained by fitting the percent inhibition data to a sigmoidal dose-response (4 parameter logistic) model in the XLfit® software Excel add-in program [from ID Business Solutions Ltd., model 205, where F(x)=(A+(B−A)/(1+((C/x)^D)))].

Experiment [2] addresses T1, human CRTH2. Put plainly: Calcium Flux Assay Using Fluorometric Imaging Plate Reader (FLIPR). It is filed as cell-based. The conditions noted are these: CHO-K1 cells with G-alpha 16 and human CRTH2; inhibition of DK-PGD2 ligand-induced Ca2+ flux. As for the experimental part: Calcium Flux Assay Using Fluorometric Imaging Plate Reader (FLIPR)
Cell Culture Conditions: CHO-K1 cells previously transfected with G-alpha 16 were subsequently transfected with the human CRTH2 receptor and the neomycin resistance gene. Following selection in 800 μg/mL G418 (geneticin), individual clones were assayed for their receptor expression based on staining with an anti human CRTH2 IgG, followed by assaying for their response to 13,14-dihydro-15-keto Prostaglandin D2 (DK-PDG2) (ligand) in the Ca^2+ Flux assay. Positive clones were then cloned by limiting dilution cloning. The transfected cells were cultured in Ham's F-12 medium supplemented with 10% fetal bovine serum, 2 mM glutamine, 100 U/mL penicillin/100 μg/mL streptomycin, 200 μg/mL hygromycin B, and 800 μg/mL G418 (geneticin). Cells were harvested with trypsin-EDTA (trypsin-ethylenediaminetetraacetic acid) and counted using ViaCount® reagent (from Guava Technologies, Inc. which contains two DNA-binding dyes that enable the reagent user to distinguish between viable and non-viable cells). The cell suspension volume was adjusted to 2.5×10^5 cells/mL with complete growth media. Aliquots of 50 μL were dispensed into BD Falcon™ 384 well black/clear microplates (from BD Biosciences, a division of Becton, Dickinson and Company) and the microplates were placed in a 37° C. CO2 incubator overnight. The following day, the microplates were used in the assay.
Loading Buffer containing dye (from the FLIPR® Calcium 3 Assay Kit from Molecular Devices, a division of MDS Analytical Technologies and MDS Inc.) was prepared by dissolving the contents of one bottle into 200 mL Hank's Balanced Salt Solution containing 20 mM HEPES (4-(2-hydroxyethyl)-1-piperazineethanesulfonic acid) and 2.5 mM probenecid. Growth media was removed from the cell plates and 25 μL of Hank's Balanced Salt Solution (HBSS) containing 20 mM HEPES, 0.05% BSA and 2.5 mM probenecid was added to each well followed by 25 μL of diluted dye using a Multidrop dispenser. The plates were then incubated for 1 hour at 37° C.
During the incubation, test compound plates were prepared by adding 90 μL of HBSS/20 mM HEPES/0.005% BSA buffer to the 2 μL of serial diluted compounds. To prepare serial diluted compounds, 20 mM stocks of compounds were dissolved in 100% DMSO. The compound dilution plate was set up as follows: well #1 received 5 μL of compound plus 10 μL of DMSO. Wells 2-10 received 10 μL of DMSO. 5 μL was mixed and transferred from well #1 into well #2. 1:3 serial dilutions were continued out 10 steps. 2 μL of diluted compound was transferred into duplicate wells of a 384 well “assay plate” and then 90 μL of buffer was added.
After incubation, both the cell and “assay plate” plates were brought to the fluorometric imaging plate reader (FLIPR®) and 20 μL of the diluted compounds were transferred to the cell plates by the FLIPR®. Plates were then incubated for 1 hour at room temperature. […] During the assay, fluorescence readings were taken simultaneously from all 384 wells of the cell plate every 1.5 seconds. Five readings were taken to establish a stable baseline, then 20 μL of sample was rapidly (30 μL/sec) and simultaneously added to each well of the cell plate. The fluorescence was continuously monitored before, during and after sample addition for a total elapsed time of 100 seconds. Responses (increase in peak fluorescence) in each well following agonist addition were determined. The initial fluorescence reading from each well, prior to ligand stimulation, was used as a zero baseline value for the data from that well. The responses were expressed as % inhibition of the buffer control.

A further experiment concerns Th2 cells. Put plainly: DK-PGD2-Induced IL-13 Production Assay in Th2 Cells. It is filed as cell-based. The conditions noted are these: human Th2 cells; 500 nM DK-PGD2; 4 hrs at 37° C.; IL-13 by ELISA. On the procedure:
DK-PGD2-Induced IL-13 Production Assay in Th2 Cells
Cultures of Th2 cells were established from blood of healthy human volunteers according to the following procedure. Peripheral blood mononuclear cells (PBMC) were first isolated from 50 mL of fresh blood by Ficoll-Hypaque density gradient centrifugation, followed by CD4^+ cell purification using a CD4^+ T Cell Isolation Kit II (from Miltenyi Biotec Inc.). The CD4^+ T cells were then differentiated to Th2 cells by culturing the cells in X-VIVO 15® medium (from Cambrex BioScience Walkersville Inc.) containing 10% human AB serum (serum of blood type AB from Invitrogen Corporation), 50 U/mL of recombinant human interleukin-2 (rhIL-2) (from PeproTech Inc.) and 100 ng/mL of recombinant human interleukin-4 (rhIL-4) (from PeproTech Inc.) for 7 days. […] In general, 70% to 80% of the Th2 cells used in the assay are CRTH2-positive when analyzed by fluorescence-activated cell sorting using the BM16 antibody (as previously described) conjugated to Alexa Fluor 647.
The spontaneous production of IL-13 by Th2 cells was determined in the absence of DK-PGD2 stimulation and the value was subtracted from that in the presence of each compound for percent inhibition and IC50 calculations. […]
For orientation: In an ELISA, binding on a coated surface is turned into a signal by an enzyme label.

T1 sequence (Q9Y5Y4 whole entry): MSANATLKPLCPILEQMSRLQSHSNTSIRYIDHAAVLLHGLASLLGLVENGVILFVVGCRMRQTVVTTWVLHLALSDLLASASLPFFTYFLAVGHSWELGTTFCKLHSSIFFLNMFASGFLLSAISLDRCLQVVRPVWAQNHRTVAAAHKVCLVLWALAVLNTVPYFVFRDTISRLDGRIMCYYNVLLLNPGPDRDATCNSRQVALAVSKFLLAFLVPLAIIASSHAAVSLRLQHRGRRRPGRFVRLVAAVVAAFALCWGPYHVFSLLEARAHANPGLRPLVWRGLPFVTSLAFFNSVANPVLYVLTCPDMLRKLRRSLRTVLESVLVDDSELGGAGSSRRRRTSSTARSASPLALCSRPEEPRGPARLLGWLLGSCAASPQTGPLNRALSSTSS

For `Cc1ccccc1S(=O)(=O)c1ccc(-c2c(C)c(CC(=O)O)cc3ccc(F)cc23)cc1` [Example 1, {6-Fluoro-3-methyl-4-[4-(toluene-2-sulfonyl)-phenyl]-naphthalen-2-yl}-acetic acid], the IC50 (commonly the point on the concentration scale where inhibition reaches its midpoint) at human CRTH2 [1] came to 2.9 nM; at human CRTH2 [2] it was 0.3 nM. On to `Cc1c(CC(=O)O)cc2ccc(Cl)cc2c1-c1ccc(S(=O)(=O)N2CCCC2)cc1` [Example 33, {6-Chloro-3-methyl-4-[4-(pyrrolidine-1-sulfonyl)-phenyl]-naphthalen-2-yl}-acetic acid], for which the IC50 at human CRTH2 [2] worked out at 0.8 nM; in the experiment on Th2 cells it was 8 nM. For the compound `Cc1c(CC(=O)O)cc2ccc(F)cc2c1-c1ccc(S(C)(=O)=O)cc1` [Example 54, [6-Fluoro-4-(4-methansulfonyl-phenyl)-3-methyl-naphthalen-2-yl]-acetic acid], the IC50 on human CRTH2 [1] was found to be 40 nM; at human CRTH2 [2], 25 nM. Regarding `Cc1c(CC(=O)O)cc2ccc(Cl)cc2c1-c1ccc(S(=O)(=O)N2CCOCC2)cc1` [Example 55, {6-Chloro-3-methyl-4-[4-(morpholino-4-sulfonyl)-phenyl]-naphthalen-2-yl}-acetic acid], at human CRTH2 [1], the IC50 came to 2.4 nM. Regarding `Cc1c(CC(=O)O)cc2ccc(F)cc2c1-c1ccc(S(C)(=O)=O)cn1` [Example 58, [6-Fluoro-4-(5-methanesulfonyl-pyridin-2-yl)-3-methyl-naphthalen-2-yl]-acetic acid], the IC50 is 139 nM at human CRTH2 [1] and 1120 nM on human CRTH2 [2]. For the compound `Cc1c(CC(=O)O)cc2ccc(F)cc2c1-c1ccc(NS(=O)(=O)c2ccccc2)cc1` [Example 59, [4-(4-Benzenesulfonylamino-phenyl)-6-fluoro-3-methyl-naphthalen-2-yl]-acetic acid], the IC50 on human CRTH2 [1] amounted to 3.2 nM.

Consider `Cc1c(CC(=O)O)cc2ccc(F)cc2c1-c1ccc(NS(=O)(=O)c2cc(C(F)(F)F)cc(C(F)(F)F)c2)cc1` [Example 60, {4-[4-(3,5-Bis-trifluoromethyl-benzenesulfonylamino)-phenyl]-6-fluoro-3-methyl-naphthalen-2-yl}-acetic acid], for which the results for the IC50 at human CRTH2 [1] and on human CRTH2 [2] were 5.6 nM and 0.1 nM, respectively. `Cc1c(CC(=O)O)cc2ccc(Cl)cc2c1-c1ccc(NS(=O)(=O)c2ccccc2)cc1` [Example 61, [4-(4-Benzenesulfonylamino-phenyl)-6-chloro-3-methyl-naphthalen-2-yl]-acetic acid] yielded an IC50 at human CRTH2 [1] of 3.7 nM.

For `Cc1c(CC(=O)O)cc2ccc(Cl)cc2c1-c1ccc(NS(=O)(=O)c2ccccc2C(F)(F)F)cc1` [Example 62, {6-Chloro-3-methyl-4-[4-(2-trifluoromethyl-benzenesulfonylamino)-phenyl]-naphthalen-2-yl}-acetic acid], on human CRTH2 [1], the IC50 was 8.9 nM. On to `Cc1ccccc1S(=O)(=O)Nc1ccc(-c2c(C)c(CC(=O)O)cc3ccc(Cl)cc23)cc1` [Example 63, {6-Chloro-3-methyl-4-[4-(toluene-2-sulfonylamino)-phenyl]-naphthalen-2-yl}-acetic acid], for which, on human CRTH2 [1], the IC50 turned out to be 8.3 nM. Still for that read-out and setting: with `CC(=O)Nc1ccc(-c2c(C)c(CC(=O)O)cc3ccc(Cl)cc23)cc1` [Example 64, [4-(4-Acetylamino-phenyl)-6-chloro-3-methyl-naphthalen-2-yl]-acetic acid] the figure was 29.2 nM; with `Cc1c(CC(=O)O)cc2ccc(Cl)cc2c1-c1ccc(NC(=O)c2ccccc2)cc1` [Example 65, [4-(4-Benzoylamino-phenyl)-6-chloro-3-methyl-naphthalen-2-yl]-acetic acid], 6.2 nM; with `Cc1c(CC(=O)O)cc2ccc(Cl)cc2c1-c1ccc(NC(=O)Nc2ccccc2)cc1` [Example 66, {6-Chloro-3-methyl-4-[4-(3-phenyl-ureido)-phenyl]-naphthalen-2-yl}-acetic acid], 19 nM.
